Laboratory results taken from the supplement of paper PMC10307832.

Columns and labels:
Assay in all cases: relative viability (nuclei count vs DMSO), 5 days (fraction); higher = more cells survive
Lenalidomide = compound: Nc1cccc2c1CN(C1CCC(=O)NC1=O)C2=O [Lenalidomide]
In short: (§1)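 Five library-drug doses, separated by factors of √10, were pinned into 1536-well plates holding lung cancer cell lines after an overnight stay at 37 °C. Cells were fixed, permeabilised and Hoechst-stained in one step after 5 days without medium change, then imaged at 4×. Viability compares treated-well with vehicle-well nuclei, counted in MetaXpress, as a median across plates. Passing plates had control CV below 25% and at least one doubling.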

Luminespib = compound: CCNC(=O)c1noc(-c2cc(C(C)C)c(O)cc2O)c1-c1ccc(CN2CCOCC2)cc1 [Luminespib]
In short: as §1

Saracatinib = compound: CN1CCN(CCOc2cc(OC3CCOCC3)c3c(Nc4c(Cl)ccc5c4OCO5)ncnc3c2)CC1 [Saracatinib]
In short: as §1

Nilotinib = compound: Cc1cn(-c2cc(NC(=O)c3ccc(C)c(Nc4nccc(-c5cccnc5)n4)c3)cc(C(F)(F)F)c2)cn1 [Nilotinib]
In short: as §1

MIM1 = compound: CC1=CSC(=NC2CCCCC2)N1/N=C/C3=C(C(=C(C=C3)O)O)O [MIM1]
In short: as §1

| Cell Line | relative viability (Lenalidomide; 0.253 µM) | relative viability (Lenalidomide; 0.8 µM) | relative viability (Lenalidomide; 2.53 µM) | relative viability (Lenalidomide; 8 µM) | relative viability (Luminespib; 0.002 µM) | relative viability (Luminespib; 0.006325 µM) | relative viability (Luminespib; 0.01 µM, anchor plate) | relative viability (Luminespib; 0.02 µM) | relative viability (Luminespib; 0.06325 µM) | relative viability (Luminespib; 0.2 µM) | relative viability (Saracatinib; 0.02 µM) | relative viability (Saracatinib; 0.2 µM) | relative viability (Saracatinib; 0.6325 µM) | relative viability (Saracatinib; 2 µM) | relative viability (Nilotinib; 0.001 µM) | relative viability (Nilotinib; 0.003162 µM) | relative viability (Nilotinib; 0.01 µM) | relative viability (Nilotinib; 0.03162 µM) | relative viability (Nilotinib; 0.1 µM) | relative viability (MIM1; 0.2 µM) | relative viability (MIM1; 0.6325 µM) | relative viability (MIM1; 2 µM) | relative viability (MIM1; 6.325 µM) | relative viability (MIM1; 20 µM) |
| --- | --- | --- | --- | --- | --- | --- | --- | --- | --- | --- | --- | --- | --- | --- | --- | --- | --- | --- | --- | --- | --- | --- | --- | --- |
| HOP-62 | 0.943 | 0.963 | 1.05 | 0.93 | 1.05 | 0.969 | 0.912 | 1.01 | 0.659 | 0.249 | 1.02 | 0.968 | 1.19 | 1.14 | 0.953 | 0.958 | 0.948 | 0.698 | 0.462 | 1.02 | 0.942 | 0.782 | 0.74 | 0.204 |
| IA-LM | 0.985 | 0.859 | 1.05 | 0.942 | 1.06 | 0.884 |  | 0.678 | 0.0695 | 0.0432 | 0.983 | 0.848 | 1.46 | 1 | 0.835 | 0.793 | 1.07 | 0.789 | 0.909 | 0.976 | 0.935 | 0.896 | 0.345 | 0.157 |
| NCI-H1563 | 0.932 | 1.01 | 1.11 | 0.846 | 0.984 | 0.985 | 0.508 | 0.794 | 0.503 | 0.49 | 1.04 | 0.894 | 0.804 | 0.728 | 0.956 | 1.03 | 0.971 | 0.869 | 1.02 | 1.09 | 1.02 | 0.993 | 0.903 | 0.542 |
| NCI-H647 | 0.993 | 0.753 | 1.16 | 0.904 | 0.953 | 0.935 | 0.174 | 0.674 | 0.0941 | 0.092 | 0.967 | 0.868 | 0.858 | 0.572 | 0.889 | 1.17 | 1.35 | 0.729 | 0.878 | 0.933 | 0.951 | 0.51 | 0.821 | 0.3 |
| HCC-366 | 1.02 | 0.989 | 1.07 | 0.934 | 0.988 | 0.987 |  | 0.998 | 0.0511 | 0.053 | 1.07 | 0.731 | 0.952 | 0.77 | 0.982 | 1.12 | 1.24 | 0.971 | 0.527 | 0.991 |  | 0.973 | 0.216 | 0.0492 |
| NCI-H2087 | 1.03 | 0.892 | 1.14 | 0.888 | 1.07 | 0.894 | 0.192 | 0.625 | 0.143 | 0.122 | 1.11 | 0.873 | 1.11 | 1.01 | 0.813 | 0.981 | 0.992 | 0.443 | 0.299 | 1.03 | 0.943 | 1.03 | 0.696 | 0.583 |
